The values that follow come from PMC2832311 (Journal of medicinal chemistry, 2009).

One assay addresses human 5-HT2B receptor (Homo sapiens, UniProt P41595). The assay can be described thus: Calcium flux assay, 5-HT2B. Conditions: for pEC50: 5-HT2B EC50, HEK-293, NA: Emax ≤ 12%; for Emax: read-out: 5-HT2B Emax, percent of maximal activation by 5-HT. (Calcium assays in cells follow changes in intracellular calcium, usually with a dye or a luminescent sensor.)
The target in assay [1] is T1, human 5-HT2C (INI) receptor (Homo sapiens, UniProt P28335).
T1 sequence (P28335 33-458): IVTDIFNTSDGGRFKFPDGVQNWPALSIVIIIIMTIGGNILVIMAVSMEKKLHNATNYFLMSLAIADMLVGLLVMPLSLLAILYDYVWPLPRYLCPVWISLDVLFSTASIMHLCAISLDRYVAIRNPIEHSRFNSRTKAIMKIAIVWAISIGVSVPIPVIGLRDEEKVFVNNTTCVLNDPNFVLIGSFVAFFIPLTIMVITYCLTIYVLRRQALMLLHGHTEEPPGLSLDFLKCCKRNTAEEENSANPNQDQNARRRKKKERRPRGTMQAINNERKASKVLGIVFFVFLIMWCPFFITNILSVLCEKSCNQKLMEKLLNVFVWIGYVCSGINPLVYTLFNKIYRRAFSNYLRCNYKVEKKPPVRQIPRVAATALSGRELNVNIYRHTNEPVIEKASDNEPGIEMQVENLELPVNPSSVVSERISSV
The assay can be described thus: Calcium flux assay, 5-HT2C. To be noted: for pEC50: NA: Emax ≤ 12%; for Selectivity 2A/2C / Selectivity 2B/2C: EC50 ratio; for Emax: read-out: 5-HT2C Emax, percent of maximal activation by 5-HT; for 5-HT2C agonist efficacy (in words): calcium flux.

Another assay has as its target human 5-HT2A receptor (Homo sapiens, UniProt P28223). The assay can be described thus: Calcium flux assay, 5-HT2A. Conditions: for pEC50: 5-HT2A EC50, HEK-293, NA: Emax ≤ 12%; for Emax: read-out: 5-HT2A Emax, percent of maximal activation by 5-HT.
In the next assay the test system is C57BL/6J male mice. The assay can be described thus: Mouse forced swim test. The format is in vivo. To be noted: 30 min prior to testing.
Another assay relates to MAO. Conditions: tryptamine potentiation model; cited from earlier work.
Setting [2] is: 5-HT2C EC50, HEK-293, Table 2 section 1.
The mark [3] stands for this setting: Table 2 section 1 (independent campaign).
[4] abbreviates: Table 2 section 2 (independent campaign).
Where [5] appears, read: 5-HT2C EC50, HEK-293, Table 2 section 4.
The mark [6] stands for this setting: 5-HT2C EC50, HEK-293, Table 2 section 2.

pEC50: −log10 of the molar value. “Also recorded” adds a separate entry of the source. Like-named read-outs stand apart in the source and are kept apart here.

Sequence of human 5-HT2A receptor (P28223 whole entry): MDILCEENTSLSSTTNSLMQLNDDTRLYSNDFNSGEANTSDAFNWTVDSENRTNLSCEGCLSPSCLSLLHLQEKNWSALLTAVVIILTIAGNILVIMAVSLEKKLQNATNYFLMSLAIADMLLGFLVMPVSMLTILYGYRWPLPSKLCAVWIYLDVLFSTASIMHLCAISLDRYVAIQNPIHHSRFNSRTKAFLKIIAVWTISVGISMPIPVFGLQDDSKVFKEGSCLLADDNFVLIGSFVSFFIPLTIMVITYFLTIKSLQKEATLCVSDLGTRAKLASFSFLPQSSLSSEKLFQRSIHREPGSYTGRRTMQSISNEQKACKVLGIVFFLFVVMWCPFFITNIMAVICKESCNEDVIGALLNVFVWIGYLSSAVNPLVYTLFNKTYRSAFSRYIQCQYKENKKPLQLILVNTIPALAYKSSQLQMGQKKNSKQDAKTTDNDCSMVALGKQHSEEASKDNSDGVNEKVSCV
Sequence of human 5-HT2B receptor (P41595 whole entry): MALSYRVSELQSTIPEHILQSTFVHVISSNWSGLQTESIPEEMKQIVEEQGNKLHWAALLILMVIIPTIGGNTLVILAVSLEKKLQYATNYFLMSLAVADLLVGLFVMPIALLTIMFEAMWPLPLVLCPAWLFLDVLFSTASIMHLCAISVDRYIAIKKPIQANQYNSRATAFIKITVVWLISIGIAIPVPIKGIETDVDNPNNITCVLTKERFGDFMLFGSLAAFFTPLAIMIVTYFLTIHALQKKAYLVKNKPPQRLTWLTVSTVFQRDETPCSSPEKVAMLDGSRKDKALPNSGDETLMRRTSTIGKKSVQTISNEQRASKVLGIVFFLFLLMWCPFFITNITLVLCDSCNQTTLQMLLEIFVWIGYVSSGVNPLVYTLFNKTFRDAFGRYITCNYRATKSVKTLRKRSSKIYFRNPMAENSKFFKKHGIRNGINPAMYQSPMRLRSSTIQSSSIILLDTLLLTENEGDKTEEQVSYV

`Cl.NC[C@@H]1C[C@H]1c1ccccc1Br` (relative stereo) [compound 29, trans-[2-(2-Bromophenyl)cyclopropyl]methylamine Hydrochloride]: the values for the pEC50 (on human 5-HT2B receptor (Table 2 section 1); in assay [1] (setting [2]); on human 5-HT2A receptor (setting [3])) were 6.81, 8.55 and 6.23, respectively. Also, the “Selectivity 2A/2C” value in assay [1] (Table 2 section 1) came out at 206. In addition, the “Selectivity 2B/2C” value in assay [1] (Table 2 section 1) is given as 54. In addition, in assay [1] (Table 2 section 1), the maximum response (Emax) came to 93%.
On to `CC(C)N[C@@H]1C[C@H]1c1ccccc1` (relative stereo) [compound 18, trans-N-Isopropyl-(2-phenylcyclopropyl)amine], for which the pEC50 in assay [1] (5-HT2C EC50, HEK-293 stably transfected, Table 1 section 2) was 5.47. In addition, the maximal effect (Emax) in assay [1] (Table 1 section 2) was 18%.
Take `Cl.NC[C@H]1C[C@@H]1c1cccc(F)c1` (relative stereo) [compound 34, trans-[2-(3-Fluorophenyl)cyclopropyl]methylamine Hydrochloride]: the negative-log EC50 (pEC50) is 7.29 on human 5-HT2B receptor (Table 2 section 1); 7.89 on human 5-HT2B receptor (Table 2 section 2); 8.41 in assay [1] (setting [2]); 5.75 on human 5-HT2A receptor (setting [3]); 6.13 at human 5-HT2A receptor (setting [4]). In addition, the Emax is 106% on human 5-HT2B receptor (Table 2 section 1); 96% at human 5-HT2B receptor (Table 2 section 2); 97% in assay [1] (Table 2 section 2); 96% in assay [1] (Table 2 section 4); 73% at human 5-HT2A receptor (Table 2 section 4). The “Selectivity 2A/2C” value stood at 450 in assay [1] (Table 2 section 1) and 225 in assay [1] (Table 2 section 2). For the same molecule, the “Selectivity 2B/2C” value in assay [1] (Table 2 section 1) was 13; in assay [1] (Table 2 section 2) it was 4.0.
With `Cl.NC[C@H]1C[C@@H]1c1ccccc1F` (relative stereo) [compound 27, trans-[2-(2-Fluorophenyl)cyclopropyl]methylamine Hydrochloride], the pEC50 on human 5-HT2B receptor (Table 2 section 1) is 5.81; at human 5-HT2B receptor (Table 2 section 2), 6.70; in assay [1] (setting [2]), 7.43; in assay [1] (setting [5]), 7.48; at human 5-HT2A receptor (setting [3]), under 6.00; at human 5-HT2A receptor (setting [4]) it was 6.03. Further, the negative-log EC50 (pEC50) on human 5-HT2A receptor (Table 2 section 4 (independent campaign)) was 6.17. The maximal response (Emax) amounted to 89% at human 5-HT2B receptor (Table 2 section 2); 84% at human 5-HT2B receptor (Table 2 section 4); 94% in assay [1] (Table 2 section 1); 79% on human 5-HT2A receptor (Table 2 section 2); 62% on human 5-HT2A receptor (Table 2 section 4). Besides, the entries for the “Selectivity 2A/2C” value in assay [1] (Table 2 section 1) and in assay [1] (Table 2 section 2) were over 27 and 32, respectively. The “Selectivity 2B/2C” value in assay [1] (Table 2 section 1) came out at 42; in assay [1] (Table 2 section 2), 6.8.
Consider `CN[C@H]1CC[C@@H](c2ccc(Cl)c(Cl)c2)c2ccccc21` [compound 92, sertraline, reference compound], for which the “immobility time (in words)” value in the assay on C57BL/6J male mice (10 mg/kg i.p., positive control, p < 0.001) is listed as “significant decrease in immobility; also recorded: significantly reduced the immobility time”.
As to `Cl.NC[C@H]1C[C@@H]1c1ccc(F)cc1` (relative stereo) [compound 41, trans-[2-(4-Fluorophenyl)cyclopropyl]methylamine Hydrochloride], the negative logarithm of the EC50 (pEC50) at human 5-HT2B receptor (Table 2 section 1) was 6.51; at human 5-HT2B receptor (Table 2 section 2), 7.24; in assay [1] (setting [6]) it was 8.08; in assay [1] (setting [5]) it was 7.96; on human 5-HT2A receptor (setting [3]) it was 5.96; on human 5-HT2A receptor (setting [4]), 6.19. Besides, the Emax is 95% on human 5-HT2B receptor (Table 2 section 1), 96% in assay [1] (Table 2 section 4), 80% at human 5-HT2A receptor (Table 2 section 2) and 68% on human 5-HT2A receptor (Table 2 section 4). Also, the “Selectivity 2A/2C” value in assay [1] (Table 2 section 1) came out at 202; in assay [1] (Table 2 section 2), 77. For the same molecule, the “Selectivity 2B/2C” value in assay [1] (Table 2 section 1) is on record as 57; in assay [1] (Table 2 section 2) it was 6.8.
For `Cc1cccc([C@H]2C[C@@H]2CN)c1.Cl` (relative stereo) [compound 37, trans-[2-(3-Methylphenyl)cyclopropyl]methylamine Hydrochloride], the “immobility time (in words)” value in the assay on C57BL/6J male mice (10–60 mg/kg i.p., vs vehicle) is listed as “decreased immobility time; also recorded: significant decrease in immobility; also recorded: dose-dependent decrease in immobility time”.
With `N[C@@H]1C[C@H]1c1ccccc1` (racemic) [compound 9, tranylcypromine, reference compound], the “5-HT2C agonist efficacy (in words)” value in assay [1] is listed as “full agonists”.
As for `Cl.NC[C@H]1C[C@@H]1c1ccc(C(F)(F)F)cc1` (relative stereo) [compound 45, trans-[2-(4-Trifluoromethylphenyl)cyclopropyl]methylamine Hydrochloride], the “Selectivity 2B/2C” value in assay [1] (Table 2 section 1) is recorded as over 1.
As to `Cl.NC[C@@H]1C[C@H]1c1ccccc1` (relative stereo) [14a, trans-(2-Phenylcyclopropyl)methylamine Hydrochloride], in assay [1], the “5-HT2C agonist efficacy (in words)” value is “full agonists”. Further, the MAO inhibitory activity entry with MAO is “devoid of MAO inhibitory activity”.
As for `C[C@H]1CNCCc2ccc(Cl)cc21` [compound 7, (1R)-8-chloro-2,3,4,5-tetrahydro-1-methyl-1H-3-benzazepine, reference compound], the Emax in assay [1] (Table 2 section 4) was found to be 96%; at human 5-HT2A receptor (Table 2 section 4) it was 33%.
In the case of `Cl.NC[C@@H]1C[C@H]1c1ccccc1` [(−)-14a, (−)-trans-(R,R)-(2-Phenylcyclopropyl)methylamine Hydrochloride], the “Selectivity 2A/2C” value in assay [1] (Table 1 section 2) is over 10.
On to `Cl.NC[C@H]1C[C@@H]1c1ccccc1` [(+)-14a, (+)-trans-(S,S)-(2-Phenylcyclopropyl)methylamine Hydrochloride], for which the “5-HT2C agonist efficacy (in words)” value in assay [1] was “full agonists”.
Turning to `Cl.NC[C@H]1C[C@@H]1c1ccccc1Cl` (relative stereo) [compound 28, trans-[2-(2-Chlorophenyl)cyclopropyl]methylamine Hydrochloride], the negative-log EC50 (pEC50) at human 5-HT2B receptor (Table 2 section 1) is 7.08; in assay [1] (setting [6]) it was 8.26; at human 5-HT2A receptor (setting [3]) it was 6.39. Further, in assay [1] (Table 2 section 1), the “Selectivity 2A/2C” value was found to be 79. Moreover, in assay [1] (Table 2 section 1), the “Selectivity 2B/2C” value is recorded as 16. Further, the maximal response (Emax) in assay [1] (Table 2 section 1) is 98%; on human 5-HT2A receptor (Table 2 section 2), 87%.

In general, pEC50 refers to the negative decadic logarithm of the EC50, by convention in mol/L. In general, Emax refers to the maximal effect, on the per cent scale that the assay sets.
